From patent US9725449B2, “Tricyclic compounds as anticancer agents” (BRISTOL-MYERS SQUIBB COMPANY, priority 2015, dated 2017)

Target: BRD4 (Homo sapiens, UniProt O60885)
Experiment: Time resolved fluorescence resonance energy transfer (TR-FRET) binding assay, bromodomain BRD4
Conditions: one of the FRET assays described; read-out: FRET BRD4 IC50

SMILES | IC50 [nM]
Cc1nnn(C)c1-c1cnc2c3cncc(S(C)(=O)=O)c3n(C(c3ccccc3)C3CCC(F)(F)CC3)c2c1 (centres unmarked) [Example 290, 8-[(4,4-Difluorocyclohexyl)(phenyl)methyl]-5-(dimethyl-1H-1,2,3-triazol-5-yl)-10-methanesulfonyl-3,8,12-triazatricyclo[7.4.0.0^2,^7]trideca-1(13),2(7),3,5,9,11-hexaene] | < 1
[2H]C([2H])([2H])c1nnn(C)c1-c1cnc2c3cncc(C(C)(C)O)c3n([C@H](c3ccccc3)C3CCOCC3)c2c1 [Example 291, 2-{5-[4-(^2H3)Methyl-1-methyl-1H-1,2,3-triazol-5-yl]-8-[(S)-oxan-4-yl(phenyl)methyl]-3,8,12-triazatricyclo[7.4.0.0^2,^7]trideca-1(9),2,4,6,10,12-hexaen-10-yl}propan-2-ol] | < 1
[2H]C([2H])([2H])c1nnn(C)c1-c1cnc2c3c(F)c(C(C)(C)O)ncc3n([C@H](c3ccccc3)C3CCOCC3)c2c1 [Example 292, 2-{13-Fluoro-5-[4-(^2H3)methyl-1-methyl-1H-1,2,3-triazol-5-yl]-8-[(S)-oxan-4-yl(phenyl)methyl]-3,8,11-triazatricyclo[7.4.0.0^2,^7]trideca-1(13),2(7),3,5,9,11-hexaen-12-yl}propan-2-ol] | < 10
Cc1nnn(C)c1-c1cnc2c3c(Cl)nc(C(C)(C)O)cc3n([C@H](c3ccccc3)C3CCOCC3)c2c1 [Example 294, 2-{13-chloro-5-[4-(^2H3)methyl-1-methyl-1H-1,2,3-triazol-5-yl]-8-[(S)-oxan-4-yl(phenyl)methyl]-3,8,12-triazatricyclo[7.4.0.0^2,^7]trideca-1(13),2(7),3,5,9,11-hexaen-11-yl}propan-2-ol] | < 10
[2H]C([2H])([2H])c1nnn(C)c1-c1cnc2c3ccc(NCCc4nnn[nH]4)nc3n([C@H](c3ccccc3)C3CCOCC3)c2c1 [Example 295, 5-[4-(^2H3)Methyl-1-methyl-1H-1,2,3-triazol-5-yl]-8-[(S)-oxan-4-yl(phenyl)methyl]-N-[2-(1H-1,2,3,4-tetrazol-5-yl)ethyl]-3,8,10-triazatricyclo[7.4.0.0^2,^7]trideca-1(9),2(7),3,5,10,12-hexaen-11-amine] | < 1
[2H]C([2H])([2H])c1nnn(C)c1-c1cnc2c3c(Cl)cnc(Cl)c3n([C@H](c3ccccc3)C3CCOCC3)c2c1 [Example 296, 10,13-Dichloro-5-[4-(^2H3)methyl-1-methyl-1H-1,2,3-triazol-5-yl]-8-[(S)-oxan-4-yl(phenyl)methyl]-3,8,11-triazatricyclo[7.4.0.0^2,^7]trideca-1(9),2(7),3,5,10,12-hexaene] | < 1
[2H]C([2H])([2H])c1nnn(C)c1-c1cnc2c3c(C(C)=O)cncc3n([C@H](c3ccccc3)C3CCOCC3)c2c1 [Example 297, 1-{5-[4-(^2H3)Methyl-1-methyl-1H-1,2,3-triazol-5-yl]-8-[(S)-oxan-4-yl(phenyl)methyl]-3,8,11-triazatricyclo[7.4.0.0^2,^7]trideca-1(9),2(7),3,5,10,12-hexaen-13-yl}ethan-1-one] | < 10
[2H]C([2H])([2H])c1nnn(C)c1-c1cnc2c3c(C(C)(C)O)cncc3n([C@H](c3ccccc3)C3CCOCC3)c2c1 [Example 298, 2-{5-[4-(^2H3)Methyl-1-methyl-1H-1,2,3-triazol-5-yl]-8-[(S)-oxan-4-yl(phenyl)methyl]-3,8,11-triazatricyclo[7.4.0.0^2,^7]trideca-1(9),2(7),3,5,10,12-hexaen-13-yl}propan-2-ol] | < 10
[2H]C([2H])([2H])c1nnn(C)c1-c1cnc2c3ccncc3n([C@H](c3ccccc3)C3CCOCC3)c2c1 [Example 299, 5-[4-(^2H3)Methyl-1-methyl-1H-1,2,3-triazol-5-yl]-8-[(S)-oxan-4-yl(phenyl)methyl]-3,8,11-triazatricyclo[7.4.0.0^2,^7]trideca-1(9),2(7),3,5,10,12-hexaene] | < 1
[2H]C([2H])([2H])c1nnn(C)c1-c1cnc2c3c(OC)cncc3n([C@H](c3ccccc3)C3CCOCC3)c2c1 [Example 300, 13-Methoxy-5-[4-(^2H3)methyl-1-methyl-1H-1,2,3-triazol-5-yl]-8-[(S)-oxan-4-yl(phenyl)methyl]-3,8,11-triazatricyclo[7.4.0.0^2,^7]trideca-1(9),2(7),3,5,10,12-hexaene] | < 1
[2H]C([2H])([2H])c1nnn(C)c1-c1cnc2c3c(OCC(F)(F)F)cncc3n([C@H](c3ccccc3)C3CCOCC3)c2c1 [Example 301, 5-[4-(^2H3)Methyl-1-methyl-1H-1,2,3-triazol-5-yl]-8-[(S)-oxan-4-yl(phenyl)methyl]-13-(2,2,2-trifluoroethoxy)-3,8,11-triazatricyclo[7.4.0.0^2,^7]trideca-1(9),2(7),3,5,10,12-hexaene] | < 1
[2H]C([2H])([2H])c1nnn(C)c1-c1cnc2c3c(NCC(F)(F)F)cncc3n([C@H](c3ccccc3)C3CCOCC3)c2c1 [Example 302, 5-[4-(^2H3)Methyl-1-methyl-1H-1,2,3-triazol-5-yl]-8-[(S)-oxan-4-yl(phenyl)methyl]-N-(2,2,2-trifluoroethyl)-3,8,11-triazatricyclo[7.4.0.0^2,^7]trideca-1(9),2(7),3,5,10,12-hexaen-13-amine] | < 1
[2H]C([2H])([2H])c1nnn(C)c1-c1cnc2c3c(NCC(F)(F)F)cncc3n(C(c3ncccc3F)C3CCOCC3)c2c1 (centres unmarked) [Example 303, 8-[(3-Fluoropyridin-2-yl)(oxan-4-yl)methyl]-5-[4-(^2H3)methyl-1-methyl-1H-1,2,3-triazol-5-yl]-N-(2,2,2-trifluoroethyl)-3,8,11-triazatricyclo[7.4.0.0^2,^7]trideca-1(9),2(7),3,5,10,12-hexaen-13-amine] | < 10
[2H]C([2H])([2H])c1nnn(C)c1-c1cnc2c3c(NCC(F)(F)F)cncc3n(C(c3ncccc3F)C3CCOCC3)c2c1 (centres unmarked) [Example 304, 8-[(3-Fluoropyridin-2-yl)(oxan-4-yl)methyl]-5-[4-(^2H3)methyl-1-methyl-1H-1,2,3-triazol-5-yl]-N-(2,2,2-trifluoroethyl)-3,8,11-triazatricyclo[7.4.0.0^2,^7]trideca-1(9),2(7),3,5,10,12-hexaen-13-amine] | < 10
[2H]C([2H])([2H])c1nnn(C)c1-c1cnc2c3c(OC)nc(Cl)cc3n([C@H](c3ncccc3F)C3CCOCC3)c2c1 [Example 305, 11-Chloro-8-[(S)-(3-fluoropyridin-2-yl)(oxan-4-yl)methyl]-13-methoxy-5-[4-(^2H3)methyl-1-methyl-1H-1,2,3-triazol-5-yl]-3,8,12-triazatricyclo[7.4.0.0^2,^7]trideca-1(9),2(7),3,5,10,12-hexaene] | < 10
COc1nc(Cl)cc2c1c1ncc(-c3c(C)nnn3C)cc1n2C(c1ncccc1O)C1CCOCC1 (centres unmarked) [Example 306, 2-({11-Chloro-13-methoxy-5-[4-(^2H3)methyl-1-methyl-1H-1,2,3-triazol-5-yl]-3,8,12-triazatricyclo[7.4.0.0^2,^7]trideca-1(9),2(7),3,5,10,12-hexaen-8-yl}(oxan-4-yl)methyl)pyridin-3-ol] | < 10
Cc1nnn(C)c1-c1cnc2c3c(=O)[nH]c(Cl)cc3n(C(c3ncccc3F)C3CCOCC3)c2c1 (centres unmarked) [Example 307, 11-Chloro-8-[(3-fluoropyridin-2-yl)(oxan-4-yl)methyl]-5-[4-(^2H3)methyl-1-methyl-1H-1,2,3-triazol-5-yl]-3,8,12-triazatricyclo[7.4.0.0^2,^7]trideca-1(9),2(7),3,5,10-pentaen-13-one] | < 10
